The species named for data set [1] is Rattus norvegicus. The experiment in a line: dose producing 50% of the theoretically obtained maximum catalepsy in rats. It is filed as functional.
For data set [2], the species on record is Rattus norvegicus. Put plainly: animal or person. The settings on record: ip.
Description: (§1) Intraperitoneal dose producing a block of avoidance response in 50% of the rats.
Data set [3] relates to Mus musculus. Put plainly: Intraperitoneal dose inhibiting acetic acid induced writhing in 50% of mice. It is filed as functional. (In writhing tests, fewer writhes than in controls are read as antinociception.)
Data set [4] in a line: Levels of homovanillic acid (HVA) in rat brain 2 hour after an intraperitoneal injection dose. It is filed as ADME, tissue-based. The conditions noted are these: in vivo, ip.
For data set [5], the species on record is Rattus norvegicus.
Description: as §1
The species named for data set [6] is Mus musculus. The experiment in a line: animal or person. It is filed as functional. The conditions noted are these: sc.
Description: Subcutaneous dose at which 50% of the mouse start to lick their paws later than 10 s using hot plate assay.
The species entered for data set [7] is Mus musculus. Put plainly: animal or person. The settings on record: in Rattus norvegicus, sc, 0.5 h. It is filed as functional.
Description: Subcutaneous dose inhibiting acetic acid induced writhing 0.5 hr after administration in 50% of the rats.
The species named for data set [8] is Mus musculus. Put plainly: animal or person. It is filed as functional. The settings on record: in Rattus norvegicus, sc, 8 h.
Description: Subcutaneous dose inhibiting acetic acid induced writhing 8 hr after administration in 50% of the rats.
For data set [9], the species on record is Mus musculus. Put plainly: animal or person. It is filed as functional. The conditions noted are these: in Rattus norvegicus, po, 8 h.
Description: Peroral dose inhibiting acetic acid induced writhing 8 hr after administration in 50% of the rats.
Data set [10] is filed under the species Mus musculus. Put plainly: animal or person. It is filed as functional. The conditions noted are these: in Rattus norvegicus, po, 24 h.
Description: Peroral dose inhibiting acetic acid induced writhing 24 hr after administration in 50% of the rats.
For data set [11], the species on record is Mus musculus. Put plainly: animal or person. It is filed as functional. The settings on record: in Rattus norvegicus, po, 1 h.
Description: Peroral dose inhibiting acetic acid induced writhing 1 hr after administration in 50% of the rats.
For data set [12], the species on record is Mus musculus. Put plainly: animal or person. It is filed as functional. The conditions noted are these: po.
Description: Peroral dose at which 50% of the mouse start to lick their paws later than 10 s using hot plate assay.
For data set [13], the species on record is Mus musculus. Put plainly: Dose at which 50% of the mouse show not more than one extension movement. It is filed as functional.
The mark [14] stands for this setting: Rattus norvegicus, read-out: ED50.
Setting [15] is: Mus musculus, ip, read-out: ED50.

In general, ED50 refers to the midpoint of the dose-response relation.

Structures are written as SMILES.

For the compound `CC(C)(C)[C@]1(O)CCN2C[C@@H](c3c(Cl)cccc3Cl)CC[C@@H]2C1.Cl`, the ED50 in the data set listed under Rattus norvegicus [1] (setting [14]) and in the data set filed under Rattus norvegicus [2] was over 30 mg/kg each time.
In the data set on Mus musculus [3], `CC(C)(C)[C@@]1(O)CCN2C[C@H](c3ccccc3Cl)CC[C@@H]2C1.Cl` (stereo in doubt; (+)-5g) had an ED50 of over 30 mg/kg.
Consider `CC(=O)O[C@@]1(c2ccccc2)CCN2C[C@@H](c3ccccc3Cl)CC[C@@H]2C1.Cl`, for which the ED50 in the data set with Mus musculus [3] (setting [15]) was 2.8 mg/kg.
Take `CCCC[C@]1(O)CCN2C[C@@H](c3ccc(Cl)cc3Cl)CC[C@@H]2C1.Cl`: in data set [4], the HVA level amounted to 150%. In addition, the 50% effective dose (ED50) in the data set filed under Rattus norvegicus [1] (setting [14]) was over 10 mg/kg; in the data set filed under Rattus norvegicus [2], 42 mg/kg.
Regarding `CC(C)(C)[C@]1(O)CCN2C[C@@H](c3ccc(C(F)(F)F)cc3)CC[C@@H]2C1.Cl`, the HVA level in [4] turned out to be 369%. For the same compound, the ED50 in the data set listed under Rattus norvegicus [1] (setting [14]) is over 30 mg/kg; in the data set filed under Rattus norvegicus [2], 18.5 mg/kg.
In the case of `CC(C)(C)[C@]1(O)CCN2C[C@@H](c3ccc(Cl)cc3Cl)CC[C@@H]2C1.Cl` (stereo in doubt; (-)-5e), the HVA level in [4] was 350%. Further, the results for the ED50 in the data set filed under Rattus norvegicus [1] and in the data set listed under Rattus norvegicus [5] were 4.4 mg/kg and 4.7 mg/kg, respectively.
For `Cl.O[C@@]1(c2ccccc2)CCN2C[C@@H](c3ccccc3Cl)CC[C@@H]2C1`, the HVA level in data set [4] came out at 340%. The ED50 was over 10 mg/kg in the data set filed under Rattus norvegicus [1] (setting [14]) and 7 mg/kg in the data set listed under Rattus norvegicus [2].
In turn, `CC[C@]1(O)CCN2C[C@@H](c3ccc(Cl)cc3Cl)CC[C@@H]2C1` came in with an HVA level in data set [4] of 284%. In addition, the ED50 in the data set filed under Rattus norvegicus [2] is over 30 mg/kg.
Regarding `CCC(C)[C@]1(O)CCN2C[C@@H](c3ccc(Cl)cc3Cl)CC[C@@H]2C1.Cl` (some centres not stated), the HVA level in data set [4] is 467%. Besides, the ED50 was 5.5 mg/kg in the data set listed under Rattus norvegicus [1] (setting [14]) and 6.25 mg/kg in the data set listed under Rattus norvegicus [2].
Take `CCCC[C@@]1(OC(C)=O)CCN2C[C@H](c3ccccc3)CC[C@H]2C1`: the ED50 was determined as 1.1 mg/kg in the data set filed under Mus musculus [6]; 0.14 mg/kg in the data set listed under Mus musculus [7]; 3.8 mg/kg in the data set filed under Mus musculus [8]; 4.9 mg/kg in the data set listed under Mus musculus [9]; 69 mg/kg in the data set filed under Mus musculus [10].
Regarding `CC(=O)O[C@]1(C(C)(C)C)CCN2C[C@H](c3ccccc3Cl)CC[C@@H]2C1.Cl`, in the data set on Mus musculus [3] (setting [15]), the median effective dose (ED50) is 28 mg/kg.
Consider `CC(=O)O[C@@]1(C(C)(C)C)CCN2C[C@@H](c3ccc(Cl)cc3)CC[C@@H]2C1.Cl`, for which the median effective dose (ED50) with Mus musculus [3] (setting [15]) amounted to 4 mg/kg.
As for `CN1CC[C@]23c4c5ccc(O)c4O[C@H]2[C@@H](O)C=C[C@H]3[C@H]1C5.Cl` [MORPHINE HYDROCHLORIDE], the ED50 came out at 9.6 mg/kg in the data set listed under Mus musculus [6]; 0.96 mg/kg in the data set listed under Mus musculus [7]; 2.4 mg/kg in the data set filed under Mus musculus [11]; 36 mg/kg in the data set listed under Mus musculus [12]; 135 mg/kg in the data set filed under Mus musculus [8]; 86 mg/kg in the data set listed under Mus musculus [9]. Besides, the ED50 in the data set listed under Mus musculus [10] was over 550 mg/kg.
`CC(C)(C)[C@]1(O)CCN2C[C@@H](c3ccc(Cl)cc3Cl)CC[C@@H]2C1.Cl` (stereo in doubt; (+)-5e): the HVA level in data set [4] is 283%. The ED50 was 28.4 mg/kg in the data set filed under Rattus norvegicus [1] and over 30 mg/kg in the data set filed under Rattus norvegicus [5].
As to `CC(C)(C)[C@]1(O)CCN2C[C@@H](c3ccccc3Cl)CC[C@@H]2C1`, the HVA level in [4] is reported as 449%. In addition, the median effective dose (ED50) in the data set listed under Rattus norvegicus [1] (setting [14]) came to 20.2 mg/kg; in the data set filed under Rattus norvegicus [2], 10 mg/kg.
Turning to `CC(=O)O[C@@]1(C(C)(C)C)CCN2C[C@@H](c3ccccc3Cl)CC[C@@H]2C1.Cl` (stereo in doubt; 23), the ED50 in the data set on Mus musculus [3] (setting [15]) worked out at 36 mg/kg.
For `CC(=O)O[C@@]1(C(C)(C)C)CCN2C[C@@H](c3ccccc3)CC[C@@H]2C1.Cl`, in the data set on Mus musculus [3] (setting [15]), the ED50 was 2.6 mg/kg.
The compound `CC(C)(C)[C@]1(O)CCN2C[C@@H](c3cccc(Cl)c3)CC[C@@H]2C1.Cl` had an HVA level in [4] of 103%. Moreover, the ED50 in the data set listed under Rattus norvegicus [1] (setting [14]) and in the data set listed under Rattus norvegicus [2] was over 30 mg/kg each time.
In turn, `CC(C)(C)[C@]1(O)CCN2C[C@@H](c3ccc(Cl)c(Cl)c3)CC[C@@H]2C1.Cl` had an HVA level in [4] of 190%. Further, the ED50 in the data set filed under Rattus norvegicus [1] (setting [14]) was 30 mg/kg; in the data set filed under Rattus norvegicus [2] it was over 30 mg/kg.
With `Cl.O[C@]1(c2ccccc2)CCN2C[C@@H](c3ccccc3Cl)CC[C@@H]2C1`, in data set [4], the HVA level is 99%. In the data set listed under Rattus norvegicus [2], this compound showed a 50% effective dose (ED50) of over 30 mg/kg.
For `CC(=O)O[C@@]1(C(C)(C)C)CCN2C[C@@H](c3ccc(Cl)cc3Cl)CC[C@@H]2C1.Cl`, the ED50 in the data set with Mus musculus [3] (setting [15]) was 300 mg/kg.
In [4], `C[C@]1(O)CCN2C[C@@H](c3ccc(Cl)cc3Cl)CC[C@@H]2C1` came in with an HVA level of 157%. The ED50 in the data set filed under Rattus norvegicus [2] was over 30 mg/kg.
As to `CC(C)[C@]1(O)CCN2C[C@@H](c3ccc(Cl)cc3Cl)CC[C@@H]2C1.Cl`, the HVA level in data set [4] is on record as 280%. Moreover, the 50% effective dose (ED50) in the data set listed under Rattus norvegicus [1] (setting [14]) was determined as 9.2 mg/kg; in the data set filed under Rattus norvegicus [2], 17.5 mg/kg.
As for `CC(C)(C)[C@]1(O)CCN2C[C@@H](c3ccc(Cl)cc3Cl)CC[C@@H]2C1.Cl` (stereo in doubt; 5e), in [4], the HVA level is reported as 557%. Moreover, the ED50 stood at 12.2 mg/kg in the data set listed under Rattus norvegicus [1] and 6.4 mg/kg in the data set filed under Rattus norvegicus [5].
In data set [4], `CC(C)(C)[C@]1(O)CCN2C[C@@H](c3ccccc3)CC[C@@H]2C1.Cl` gave an HVA level of 308%. Moreover, the ED50 in the data set filed under Rattus norvegicus [2] was over 30 mg/kg.
Turning to `CC(=O)O[C@@]1(C(C)(C)C)CCN2C[C@@H](c3ccccc3Cl)CC[C@@H]2C1.Cl` (stereo in doubt; (-)-23), the median effective dose (ED50) in the data set filed under Mus musculus [13] is over 30 mg/kg.
For the compound `CC(C)(C)[C@@]1(O)CCN2C[C@H](c3ccccc3Cl)CC[C@@H]2C1.Cl` (stereo in doubt; (-)-5g), in the data set with Mus musculus [3], the ED50 was over 10 mg/kg.
As for `CCCC[C@@]1(OC(C)=O)CCN2C[C@@H](c3ccccc3)CC[C@@H]2C1.Cl`, the median effective dose (ED50) with Mus musculus [3] (setting [15]) is over 100 mg/kg.
For the compound `CCCC[C@]1(OC(C)=O)CCN2C[C@H](c3ccccc3)CC[C@H]2C1`, the ED50 in the data set listed under Mus musculus [6] was determined as 100 mg/kg; in the data set listed under Mus musculus [11], 10 mg/kg; in the data set listed under Mus musculus [12] it was 551 mg/kg.
`CC(C)(C)[C@]1(O)CCN2C[C@@H](c3ccc(Cl)cc3)CC[C@@H]2C1.Cl` yielded an HVA level in data set [4] of 290%. In addition, the ED50 turned out to be 16 mg/kg in the data set filed under Rattus norvegicus [1] (setting [14]) and 13.5 mg/kg in the data set listed under Rattus norvegicus [2].
On to `CCCC[C@@]1(O)CCN2C[C@H](c3ccccc3)CC[C@@H]2C1` (stereo in doubt; (+)-19), for which, in the data set on Mus musculus [3] (setting [15]), the median effective dose (ED50) was over 30 mg/kg.

Values taken from ChEMBL document CHEMBL1122563, “Design, synthesis, and X-ray data of novel potential antipsychotic agents. Substituted 7-phenylquinolizidines: stereospecific, neuroleptic, and antinociceptive properties” (J Med Chem, 1984).
